Where a SMILES comes first, the peptide text is derived from it. [ ]: non-standard residue; d: D form. The star is where a group is joined. NHCH2CH2OH = OCCN*; For = O=C*
Tests used:
[1] = H+/Na+ transport assay of bead-derived peptides (one-point); format: biochemical; design: key: relative activity; mean of two control wells = 1.00; details: bead-derived peptide solution, EYPC/EYPG LUVs;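 also: relative to parent gramicidin A activity set to 1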
Outline: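 H+/Na+ transport is monitored through pyranine fluorescence in freshly extruded LUVs after a 30-min room-temperature vortex with each library peptide at a single concentration. Signals are normalized to detergent (Triton X-100) and untreated controls.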

[2] = tested on: Streptococcus pyogenes SSI-9; assay: Antibacterial activity assay of bead-derived peptides (three concentrations); format: cell-based; design: key: +++: inhibition by the 640-fold diluted peptide solution; ++: inhibition by the 160-fold diluted solution; +: inhibition by the 40-fold diluted solution; -: no inhibition; details: S. pyogenes, bead-derived peptide solution, three concentrations
Outline: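 Undiluted, 4-fold and 16-fold DMSO-diluted peptide stocks; S. pyogenes SSI-9, 2 × 10^5 CFU, cation-adjusted MHB (50 mg/L Ca2+, 25 mg/L Mg2+) + 5% laked horse blood; 37 °C, 18 h; readout = cell pellet visible or not.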

[3] = cell viability/%
Outline: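 P388 cells at 1 × 10^4 cells/mL (final) were exposed to library peptides (stocks diluted 250-fold in RPMI1640/10% FBS) for 92 h at 37 °C, 5% CO2. Viable cells were counted by WST-1/1-methoxy PMS (4 h), absorbance 415 nm, and expressed as cell viability (%).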

| SMILES | H+/Na+ transport activity normalized against the value of 1 (1.00) [1] | antibacterial activity [2] | viability [3] [%] |
| --- | --- | --- | --- |
| CC(C)C[C@@H](NC(=O)[C@H](Cc1c[nH]c2ccccc12)NC(=O)[C@H](NC(=O)[C@H](Cc1c[nH]c2ccccc12)NC(=O)[C@@H](CC(C)C)NC(=O)[C@@H](NC(=O)[C@H](NC(=O)[C@H](C)NC(=O)[C@H](NC(=O)[C@H](C)NC(=O)CNC(=O)[C@@H](NC=O)C(C)C)C(C)C)C(C)C)C(C)C)[C@H](C)O)C(=O)N[C@@H](Cc1c[nH]c2ccccc12)C(=O)N[C@@H](C(=O)N[C@@H](Cc1c[nH]c2ccccc12)C(=O)NCCO)C(C)C [compound 3161] (For-VGA[dV]A[dV]V[dL]W[dT]W[dL]W[dV]W-NHCH2CH2OH) | 1.00 | - | 100 |
| CC(C)C[C@@H](NC(=O)[C@H](C)NC(=O)[C@H](NC(=O)[C@H](C)NC(=O)CNC(=O)[C@@H](NC=O)C(C)C)C(C)C)C(=O)N[C@H](C(=O)N[C@H](CC(C)C)C(=O)N[C@@H](Cc1c[nH]c2ccccc12)C(=O)N[C@@H](C(=O)N[C@@H](Cc1c[nH]c2ccccc12)C(=O)N[C@@H](C(=O)N[C@@H](Cc1c[nH]c2ccccc12)C(=O)N[C@@H](C(=O)N[C@@H](Cc1c[nH]c2ccccc12)C(=O)NCCO)[C@H](C)O)C(C)C)C(C)C)C(C)C [compound 6959] (For-VGA[dV]A[dL]V[dL]W[dV]W[dV]W[dT]W-NHCH2CH2OH) | 1.06 | + | 100 |
| CC(C)C[C@@H](NC(=O)[C@H](C)NC(=O)CNC(=O)[C@@H](NC=O)C(C)C)C(=O)N[C@@H](C)C(=O)N[C@@H](C(=O)N[C@H](C(=O)N[C@@H](C(=O)N[C@@H](Cc1c[nH]c2ccccc12)C(=O)N[C@H](CC(C)C)C(=O)N[C@@H](Cc1c[nH]c2ccccc12)C(=O)N[C@H](CC(C)C)C(=O)N[C@@H](Cc1c[nH]c2ccccc12)C(=O)N[C@H](CC(C)C)C(=O)N[C@@H](Cc1c[nH]c2ccccc12)C(=O)NCCO)C(C)C)C(C)C)[C@H](C)O [compound 9098] (For-VGA[dL]A[dT]V[dV]W[dL]W[dL]W[dL]W-NHCH2CH2OH) | 1.13 | - | 51 |
| CC(C)C[C@@H](NC(=O)[C@H](C)NC(=O)[C@H](NC(=O)[C@H](C)NC(=O)CNC(=O)[C@@H](NC=O)C(C)C)C(C)C)C(=O)N[C@H](C(=O)N[C@H](CC(C)C)C(=O)N[C@@H](Cc1c[nH]c2ccccc12)C(=O)N[C@H](CC(C)C)C(=O)N[C@@H](Cc1c[nH]c2ccccc12)C(=O)N[C@H](CC(C)C)C(=O)N[C@@H](Cc1c[nH]c2ccccc12)C(=O)N[C@H](CC(C)C)C(=O)N[C@@H](Cc1c[nH]c2ccccc12)C(=O)NCCO)C(C)C [compound 527] (For-VGA[dV]A[dL]V[dL]W[dL]W[dL]W[dL]W-NHCH2CH2OH) | 1.16 | ++ | 5.9 |
| CC(C)C[C@@H](NC(=O)[C@H](C)NC(=O)CNC(=O)[C@@H](NC=O)C(C)C)C(=O)N[C@@H](C)C(=O)N[C@@H](C(=O)N[C@H](C(=O)N[C@@H](C(=O)N[C@@H](Cc1c[nH]c2ccccc12)C(=O)N[C@H](CC(C)C)C(=O)N[C@@H](Cc1c[nH]c2ccccc12)C(=O)N[C@H](CC(C)C)C(=O)N[C@@H](Cc1c[nH]c2ccccc12)C(=O)N[C@@H](C(=O)N[C@@H](Cc1c[nH]c2ccccc12)C(=O)NCCO)C(C)C)C(C)C)C(C)C)[C@H](C)O [compound 13002] (For-VGA[dL]A[dT]V[dV]W[dL]W[dL]W[dV]W-NHCH2CH2OH) | 1.33 | - | 98.3 |
| CC(C)C[C@@H](NC(=O)[C@H](C)NC(=O)CNC(=O)[C@@H](NC=O)C(C)C)C(=O)N[C@@H](C)C(=O)N[C@H](CC(C)C)C(=O)N[C@H](C(=O)N[C@@H](C(=O)N[C@@H](Cc1c[nH]c2ccccc12)C(=O)N[C@@H](C(=O)N[C@@H](Cc1c[nH]c2ccccc12)C(=O)N[C@H](CC(C)C)C(=O)N[C@@H](Cc1c[nH]c2ccccc12)C(=O)N[C@H](CC(C)C)C(=O)N[C@@H](Cc1c[nH]c2ccccc12)C(=O)NCCO)[C@H](C)O)[C@H](C)O)C(C)C [compound 3858] (For-VGA[dL]A[dL]V[dT]W[dT]W[dL]W[dL]W-NHCH2CH2OH) | 1.28 | - | 100 |
| CNC(=O)C[C@@H](NC(=O)[C@H](Cc1c[nH]c2ccccc12)NC(=O)[C@H](NC(=O)[C@H](Cc1c[nH]c2ccccc12)NC(=O)[C@H](NC(=O)[C@H](Cc1c[nH]c2ccccc12)NC(=O)[C@H](NC(=O)[C@@H](NC(=O)[C@@H](CC(C)C)NC(=O)[C@H](C)NC(=O)[C@@H](CC(C)C)NC(=O)[C@H](C)NC(=O)CNC(=O)[C@@H](NC=O)C(C)C)C(C)C)C(C)C)C(C)C)C(C)C)C(=O)N[C@@H](Cc1c[nH]c2ccccc12)C(=O)NCCO [compound 10002] (For-VGA[dL]A[dL]V[dV]W[dV]W[dV]W[dD](NHMe)W-NHCH2CH2OH) | 1.01 | - | 100 |
| CC(C)C[C@@H](NC(=O)[C@H](Cc1c[nH]c2ccccc12)NC(=O)[C@@H](CC(C)C)NC(=O)[C@@H](NC(=O)[C@H](NC(=O)[C@H](C)NC(=O)[C@H](NC(=O)[C@H](C)NC(=O)CNC(=O)[C@@H](NC=O)C(C)C)C(C)C)C(C)C)C(C)C)C(=O)N[C@@H](Cc1c[nH]c2ccccc12)C(=O)N[C@@H](C(=O)N[C@@H](Cc1c[nH]c2ccccc12)C(=O)N[C@@H](C(=O)N[C@@H](Cc1c[nH]c2ccccc12)C(=O)NCCO)C(C)C)[C@H](C)O [compound 79] (For-VGA[dV]A[dV]V[dL]W[dL]W[dT]W[dV]W-NHCH2CH2OH) | 1.14 | ++ | 100 |
| CC(C)C[C@@H](NC(=O)[C@H](C)NC(=O)CNC(=O)[C@@H](NC=O)C(C)C)C(=O)N[C@@H](C)C(=O)N[C@H](CC(C)C)C(=O)N[C@H](C(=O)N[C@H](CC(C)C)C(=O)N[C@@H](Cc1c[nH]c2ccccc12)C(=O)N[C@@H](C(=O)N[C@@H](Cc1c[nH]c2ccccc12)C(=O)N[C@@H](C(=O)N[C@@H](Cc1c[nH]c2ccccc12)C(=O)N[C@H](CC(C)C)C(=O)N[C@@H](Cc1c[nH]c2ccccc12)C(=O)NCCO)C(C)C)[C@H](C)O)C(C)C [compound 196] (For-VGA[dL]A[dL]V[dL]W[dT]W[dV]W[dL]W-NHCH2CH2OH) | 1.06 | - | 100 |
| CNC(=O)C[C@@H](NC(=O)[C@@H](NC(=O)[C@@H](CC(C)C)NC(=O)[C@H](C)NC(=O)[C@H](NC(=O)[C@H](C)NC(=O)CNC(=O)[C@@H](NC=O)C(C)C)C(C)C)C(C)C)C(=O)N[C@@H](Cc1c[nH]c2ccccc12)C(=O)N[C@H](CC(C)C)C(=O)N[C@@H](Cc1c[nH]c2ccccc12)C(=O)N[C@@H](C(=O)N[C@@H](Cc1c[nH]c2ccccc12)C(=O)N[C@H](CC(C)C)C(=O)N[C@@H](Cc1c[nH]c2ccccc12)C(=O)NCCO)C(C)C [compound 6541] (For-VGA[dV]A[dL]V[dD](NHMe)W[dL]W[dV]W[dL]W-NHCH2CH2OH) | 1.14 | - | 100 |
| CC(C)C[C@@H](NC(=O)[C@H](C)NC(=O)[C@H](NC(=O)[C@H](C)NC(=O)CNC(=O)[C@@H](NC=O)C(C)C)C(C)C)C(=O)N[C@H](C(=O)N[C@H](CC(C)C)C(=O)N[C@@H](Cc1c[nH]c2ccccc12)C(=O)N[C@H](CC(C)C)C(=O)N[C@@H](Cc1c[nH]c2ccccc12)C(=O)N[C@@H](C(=O)N[C@@H](Cc1c[nH]c2ccccc12)C(=O)N[C@H](CC(C)C)C(=O)N[C@@H](Cc1c[nH]c2ccccc12)C(=O)NCCO)C(C)C)C(C)C [compound 3255] (For-VGA[dV]A[dL]V[dL]W[dL]W[dV]W[dL]W-NHCH2CH2OH) | 1.13 | + | 4.6 |
| CNC(=O)C[C@@H](NC(=O)[C@H](Cc1c[nH]c2ccccc12)NC(=O)[C@@H](CC(C)C)NC(=O)[C@H](Cc1c[nH]c2ccccc12)NC(=O)[C@H](NC(=O)[C@H](Cc1c[nH]c2ccccc12)NC(=O)[C@@H](CC(C)C)NC(=O)[C@@H](NC(=O)[C@@H](CC(C)C)NC(=O)[C@H](C)NC(=O)[C@@H](CC(C)C)NC(=O)[C@H](C)NC(=O)CNC(=O)[C@@H](NC=O)C(C)C)C(C)C)C(C)C)C(=O)N[C@@H](Cc1c[nH]c2ccccc12)C(=O)NCCO [compound 3854] (For-VGA[dL]A[dL]V[dL]W[dV]W[dL]W[dD](NHMe)W-NHCH2CH2OH) | 1.18 | - | 100 |
| CC(C)C[C@@H](NC(=O)[C@H](Cc1c[nH]c2ccccc12)NC(=O)[C@H](NC(=O)[C@@H](NC(=O)[C@H](NC(=O)[C@H](C)NC(=O)[C@H](NC(=O)[C@H](C)NC(=O)CNC(=O)[C@@H](NC=O)C(C)C)C(C)C)C(C)C)C(C)C)[C@H](C)O)C(=O)N[C@@H](Cc1c[nH]c2ccccc12)C(=O)N[C@H](CC(C)C)C(=O)N[C@@H](Cc1c[nH]c2ccccc12)C(=O)N[C@@H](C(=O)N[C@@H](Cc1c[nH]c2ccccc12)C(=O)NCCO)C(C)C [compound 1523] (For-VGA[dV]A[dV]V[dT]W[dL]W[dL]W[dV]W-NHCH2CH2OH) | 1.04 | + | 100 |

Source: paper PMC7531004, “Discovery of gramicidin A analogues with altered activities by multidimensional screening of a one-bead-one-compound library” (Nature Communications, 2020)
